Measured values from ChEMBL document CHEMBL1287684, “5-(pyridinon-1-yl)indazoles and 5-(furopyridinon-5-yl)indazoles as MCH-1 antagonists” (Bioorg Med Chem Lett, 2010).
≈ marks a conversion by molar mass, not a printed value.

Tests used:
[1] = target: Voltage-gated inwardly rectifying potassium channel KCNH2 (Homo sapiens, UniProt Q12809); experiment: Inhibition of human ERG expressed in HEK cells by mini-patch clamp assay
[2] = test system: Mus musculus; experiment: Antiobesity activity in diet-induced obese C57BL/6J mouse model assessed as reduction of body weight at 30 mg/kg, po bid for 5 days; type: functional; parameters: scale not given: the % may be the effect or the level left
[3] = Aqueous solubility in PBS at pH 7.4; type: physicochemical
[4] = target: Cytochrome P450 3A4 (Homo sapiens, UniProt P08684); experiment: Inhibition of CYP3A4; type: ADME
Cytochrome P450 3A4, sequence (P08684 whole entry): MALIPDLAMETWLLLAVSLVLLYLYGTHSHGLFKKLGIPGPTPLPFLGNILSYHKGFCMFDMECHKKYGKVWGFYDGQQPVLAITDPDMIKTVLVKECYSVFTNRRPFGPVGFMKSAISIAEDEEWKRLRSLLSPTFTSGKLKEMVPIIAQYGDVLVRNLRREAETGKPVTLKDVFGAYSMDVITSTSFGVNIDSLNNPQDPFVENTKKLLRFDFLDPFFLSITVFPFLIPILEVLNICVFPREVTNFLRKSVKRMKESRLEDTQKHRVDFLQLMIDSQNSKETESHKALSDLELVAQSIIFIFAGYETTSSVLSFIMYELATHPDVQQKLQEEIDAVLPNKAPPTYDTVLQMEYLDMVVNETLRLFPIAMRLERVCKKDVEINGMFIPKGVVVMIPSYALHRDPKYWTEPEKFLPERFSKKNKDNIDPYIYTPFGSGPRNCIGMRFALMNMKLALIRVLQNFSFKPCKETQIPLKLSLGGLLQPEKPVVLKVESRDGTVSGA

[5] = Half life in human liver microsomes; type: ADME, Microsome
[6] = target: T1, Melanin-concentrating hormone receptor 1 (Homo sapiens, UniProt Q99705); experiment: Displacement of [3H]4-(benzyloxy)-1-(1-(2-(pyrrolidin-1-yl)ethyl)-1H-indazol-5-yl)pyridin-2(1H)-one from MCH-1 receptor expressed in CHO-K1 cells; type: cell-based
T1 sequence (Q99705 whole entry): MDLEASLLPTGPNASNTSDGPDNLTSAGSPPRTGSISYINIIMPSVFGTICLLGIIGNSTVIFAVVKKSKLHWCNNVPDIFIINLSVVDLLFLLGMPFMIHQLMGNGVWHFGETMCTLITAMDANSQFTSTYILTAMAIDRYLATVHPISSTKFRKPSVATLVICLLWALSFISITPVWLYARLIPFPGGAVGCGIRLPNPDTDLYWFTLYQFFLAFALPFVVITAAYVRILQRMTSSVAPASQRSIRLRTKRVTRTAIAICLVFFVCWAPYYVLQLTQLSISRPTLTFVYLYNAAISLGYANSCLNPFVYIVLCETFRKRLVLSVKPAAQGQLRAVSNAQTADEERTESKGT

[7] = Half life in mouse liver microsomes; type: ADME, Microsome
[8] = target: T2, Cytochrome P450 1A2 (Homo sapiens, UniProt P05177); experiment: Inhibition of CYP1A2; type: ADME
T2 sequence (P05177 whole entry): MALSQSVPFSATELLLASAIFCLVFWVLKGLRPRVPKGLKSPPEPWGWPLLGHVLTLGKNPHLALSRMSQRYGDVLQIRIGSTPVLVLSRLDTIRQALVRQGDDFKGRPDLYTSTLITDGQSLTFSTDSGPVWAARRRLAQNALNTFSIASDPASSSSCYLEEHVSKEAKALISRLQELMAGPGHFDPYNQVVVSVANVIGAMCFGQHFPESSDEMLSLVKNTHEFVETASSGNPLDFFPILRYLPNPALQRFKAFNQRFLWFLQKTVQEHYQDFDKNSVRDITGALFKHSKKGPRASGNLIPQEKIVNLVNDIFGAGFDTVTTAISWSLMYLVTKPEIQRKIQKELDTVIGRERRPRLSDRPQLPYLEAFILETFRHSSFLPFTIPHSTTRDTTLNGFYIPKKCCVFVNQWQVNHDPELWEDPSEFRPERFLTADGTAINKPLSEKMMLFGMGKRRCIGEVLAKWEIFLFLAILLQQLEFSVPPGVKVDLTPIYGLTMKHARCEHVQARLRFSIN

[9] = target: T1, Melanin-concentrating hormone receptor 1; experiment: Antagonistic activity at MCH-1 receptor expressed in CHO-K1 cell assessed as inhibition of MCH-induced calcium release; type: functional, cell-based
[10] = Ratio of drug level in brain to plasma in mouse at 30 mg/kg after 6 hrs; type: ADME, organism-based; parameters: dose 30 mg/kg; conditions: read-out: BPR
[11] = Drug level in mouse brain at 30 mg/kg after 6 hrs; type: ADME, organism-based; parameters: dose 30 mg/kg; conditions: read-out: Drug uptake
[12] = Plasma concentration in mouse at 30 mg/kg after 6 hrs; type: ADME, organism-based; parameters: dose 30 mg/kg
[13] = target: Cytochrome P450 2C9 (Homo sapiens, UniProt P11712)
Cytochrome P450 2C9, sequence (P11712 whole entry): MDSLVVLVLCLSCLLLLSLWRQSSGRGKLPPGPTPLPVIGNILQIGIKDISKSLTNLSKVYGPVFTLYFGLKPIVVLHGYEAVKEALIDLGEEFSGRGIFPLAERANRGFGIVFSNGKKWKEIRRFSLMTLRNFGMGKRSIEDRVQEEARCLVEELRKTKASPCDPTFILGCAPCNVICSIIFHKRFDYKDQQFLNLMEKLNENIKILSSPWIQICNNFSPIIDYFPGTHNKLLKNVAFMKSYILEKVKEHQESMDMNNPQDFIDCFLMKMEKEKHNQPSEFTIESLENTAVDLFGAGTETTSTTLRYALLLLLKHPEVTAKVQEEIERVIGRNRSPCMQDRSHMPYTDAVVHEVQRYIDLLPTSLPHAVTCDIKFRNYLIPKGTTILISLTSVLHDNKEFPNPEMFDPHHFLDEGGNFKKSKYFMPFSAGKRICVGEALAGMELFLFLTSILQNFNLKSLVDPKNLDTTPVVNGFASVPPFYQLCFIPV

[14] = target: T3, Cytochrome P450 2B6 (Homo sapiens, UniProt P20813); experiment: Inhibition of CYP2B6; type: ADME
T3 sequence (P20813 whole entry): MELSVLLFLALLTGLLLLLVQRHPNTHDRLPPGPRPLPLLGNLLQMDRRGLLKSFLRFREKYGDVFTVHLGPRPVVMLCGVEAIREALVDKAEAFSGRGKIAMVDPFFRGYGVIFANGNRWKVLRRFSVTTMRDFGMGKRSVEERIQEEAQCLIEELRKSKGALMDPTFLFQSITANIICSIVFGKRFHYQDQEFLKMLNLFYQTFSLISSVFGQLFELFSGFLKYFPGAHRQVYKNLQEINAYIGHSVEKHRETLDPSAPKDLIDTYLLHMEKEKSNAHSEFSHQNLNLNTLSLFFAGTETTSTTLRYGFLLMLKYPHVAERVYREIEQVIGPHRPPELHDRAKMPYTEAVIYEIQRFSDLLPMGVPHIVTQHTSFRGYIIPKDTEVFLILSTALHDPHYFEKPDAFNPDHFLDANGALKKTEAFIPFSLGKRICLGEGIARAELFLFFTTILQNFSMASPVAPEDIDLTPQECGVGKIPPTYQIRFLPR

[15] = target: Cytochrome P450 2D6 (Homo sapiens, UniProt P10635); experiment: Inhibition of CYP2D6; type: ADME
Cytochrome P450 2D6, sequence (P10635 whole entry): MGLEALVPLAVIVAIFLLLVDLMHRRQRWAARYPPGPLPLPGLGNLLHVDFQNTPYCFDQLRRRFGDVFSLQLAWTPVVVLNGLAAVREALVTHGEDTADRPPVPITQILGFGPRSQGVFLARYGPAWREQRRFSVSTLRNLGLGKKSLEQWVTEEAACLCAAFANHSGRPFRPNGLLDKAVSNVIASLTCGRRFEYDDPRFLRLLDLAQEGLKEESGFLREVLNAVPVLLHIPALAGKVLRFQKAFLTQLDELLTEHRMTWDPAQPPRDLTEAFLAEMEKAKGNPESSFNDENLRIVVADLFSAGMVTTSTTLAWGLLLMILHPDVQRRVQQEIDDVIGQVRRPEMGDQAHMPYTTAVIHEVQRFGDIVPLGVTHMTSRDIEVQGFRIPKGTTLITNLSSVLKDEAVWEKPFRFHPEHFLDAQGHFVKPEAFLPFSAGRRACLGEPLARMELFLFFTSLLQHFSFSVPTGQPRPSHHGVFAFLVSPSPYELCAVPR

[16] = target: Cytochrome P450 2C19 (Homo sapiens, UniProt P33261); experiment: Inhibition of CYP2C19; type: ADME
Cytochrome P450 2C19, sequence (P33261 whole entry): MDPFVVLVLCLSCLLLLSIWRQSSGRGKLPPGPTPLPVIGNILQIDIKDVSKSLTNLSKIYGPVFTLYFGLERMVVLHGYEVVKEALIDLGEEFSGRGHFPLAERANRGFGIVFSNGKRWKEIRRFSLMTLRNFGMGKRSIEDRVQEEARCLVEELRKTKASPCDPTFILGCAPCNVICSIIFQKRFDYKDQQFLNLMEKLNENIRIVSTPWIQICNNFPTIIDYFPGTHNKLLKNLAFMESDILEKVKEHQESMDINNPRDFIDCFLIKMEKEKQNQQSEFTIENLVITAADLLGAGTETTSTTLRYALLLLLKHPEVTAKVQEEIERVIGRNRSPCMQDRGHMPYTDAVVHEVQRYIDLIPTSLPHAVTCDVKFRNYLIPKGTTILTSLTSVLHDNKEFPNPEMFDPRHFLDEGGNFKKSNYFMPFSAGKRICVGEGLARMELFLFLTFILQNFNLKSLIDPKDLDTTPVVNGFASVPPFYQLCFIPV

[17] = Ratio of drug level in brain to plasma in mouse at 10 mg/kg after 6 hrs; type: ADME, organism-based; parameters: dose 10 mg/kg; conditions: read-out: BPR
[18] = test system: Mus musculus; experiment: Antiobesity activity in diet-induced obese C57BL/6J mouse model assessed as reduction of body weight at 30 mg/kg, po qd for 5 days; type: functional; parameters: scale not given: the % may be the effect or the level left
[19] = Drug level in mouse brain at 10 mg/kg after 6 hrs; type: ADME, organism-based; parameters: dose 10 mg/kg; conditions: read-out: Drug uptake
[20] = Plasma concentration in mouse at 10 mg/kg after 6 hrs; type: ADME, organism-based; parameters: dose 10 mg/kg

Voltage-gated inwardly rectifying potassium channel KCNH2, sequence (Q12809 whole entry): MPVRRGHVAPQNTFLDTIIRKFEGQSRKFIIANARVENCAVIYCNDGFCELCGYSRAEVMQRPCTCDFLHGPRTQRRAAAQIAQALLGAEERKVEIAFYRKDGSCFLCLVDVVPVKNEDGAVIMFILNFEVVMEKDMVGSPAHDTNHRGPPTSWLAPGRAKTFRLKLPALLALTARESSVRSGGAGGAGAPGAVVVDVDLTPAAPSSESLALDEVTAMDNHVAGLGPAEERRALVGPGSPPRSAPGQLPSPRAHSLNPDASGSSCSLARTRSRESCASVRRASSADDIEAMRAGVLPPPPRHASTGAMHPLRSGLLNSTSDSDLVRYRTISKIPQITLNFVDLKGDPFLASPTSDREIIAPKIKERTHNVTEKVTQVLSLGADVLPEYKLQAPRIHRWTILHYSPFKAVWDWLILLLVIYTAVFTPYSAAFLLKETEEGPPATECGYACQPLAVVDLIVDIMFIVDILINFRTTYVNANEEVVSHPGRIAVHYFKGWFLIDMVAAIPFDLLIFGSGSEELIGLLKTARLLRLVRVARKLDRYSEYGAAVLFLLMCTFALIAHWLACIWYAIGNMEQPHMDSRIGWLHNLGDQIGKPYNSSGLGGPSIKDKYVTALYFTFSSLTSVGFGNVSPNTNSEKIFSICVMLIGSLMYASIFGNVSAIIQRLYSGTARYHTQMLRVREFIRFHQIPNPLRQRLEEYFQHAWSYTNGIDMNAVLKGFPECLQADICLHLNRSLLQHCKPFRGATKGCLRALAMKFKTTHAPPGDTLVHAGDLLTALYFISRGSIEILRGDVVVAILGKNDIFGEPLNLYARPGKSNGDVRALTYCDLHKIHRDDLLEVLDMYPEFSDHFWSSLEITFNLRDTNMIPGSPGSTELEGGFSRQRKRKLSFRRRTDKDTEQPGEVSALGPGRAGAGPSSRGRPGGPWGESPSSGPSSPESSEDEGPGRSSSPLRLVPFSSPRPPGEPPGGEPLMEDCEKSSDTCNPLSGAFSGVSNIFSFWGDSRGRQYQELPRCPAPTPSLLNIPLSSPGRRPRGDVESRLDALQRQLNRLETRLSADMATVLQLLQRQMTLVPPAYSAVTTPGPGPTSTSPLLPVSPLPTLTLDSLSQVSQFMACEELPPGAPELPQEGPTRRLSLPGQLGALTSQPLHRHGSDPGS

Row | Ki [6] [nM] | SMILES | IC50 [1] [nM] | other results
1 | 11.2 | COC[C@H]1CCCN1CCn1ncc2cc(-n3ccc(OCc4ccccc4)cc3=O)ccc21 | 800 | –
2 | 3.1 | O=c1cc(OCc2ccccc2)ccn1-c1ccc2c(cnn2CCN2CCC[C@@H]2CO)c1 | 2300 | –
3 | > 5000 | CCCCn1ncc2cc(-n3ccc(OCc4ccccc4)cc3=O)ccc21 | – | –
4 | 4.7 | O=c1cc(OCc2ccccc2)ccn1-c1ccc2c(cnn2CCN2CC[C@H](O)C2)c1 | 9000 | IC50 [13]: > 10000 nM; IC50 [14]: > 10000 nM; IC50 [8]: > 10000 nM; Activity [2]: 3.3%; solubility [3]: > 500 µM; IC50 [4]: 7700 nM; half-life [5]: 4.82 h; IC50 [15]: > 10000 nM; half-life [7]: 7.22 h; IC50 [16]: > 10000 nM
5 | 9.4 | CO[C@H]1CCN(CCn2ncc3cc(-n4ccc(OCc5ccccc5)cc4=O)ccc32)C1 | – | –
6 | 43.4 | O=c1cc(OCc2ccccc2)ccn1-c1ccc2c(cnn2CCN2CCOCC2)c1 | > 30000 | –
7 | 17.3 | O=c1cc(OCc2ccccc2)ccn1-c1ccc2c(cnn2CCN2CC3CC2CO3)c1 (stereo not given) | 16000 | –
8 | 24.3 | O=c1cc(OCc2ccccc2)ccn1-c1ccc2c(cnn2CCN2CCNCC2)c1 | – | –

Second part, the compound before the results:

Row | SMILES | Ki [6] [nM] | IC50 [1] [nM] | other results
9 | O=c1cc(OCc2ccccc2)ccn1-c1ccc2c(cnn2CC2=NCCN2)c1 | 22.6 | 8500 | Activity [2]: 3.5%; solubility [3]: 410 µM (≈ 164 µg/mL); IC50 [4]: 38000 nM; half-life [5]: 4.33 h; half-life [7]: 9.67 h
10 | CN(C)CCn1ncc2cc(-n3ccc(OCc4ccccc4)cc3=O)ccc21 | 4.7 | 1800 | –
11 | O=c1cc(OCc2ccccc2)ccn1-c1ccc2c(cnn2CCN2CCCC2)c1 | – | – | IC50 [8]: > 10000 nM; IC50 [9]: 14 nM; solubility [3]: 492 µM (≈ 204 µg/mL); IC50 [4]: 10000 nM; half-life [5]: 5.05 h; Kp at 6 h [10]: 0.7; concentration at 6 h [11]: 1480 ng/g; concentration at 6 h [12]: 2220 ng/mL; half-life [7]: 11.6 h
12 | CN(C)CCCn1ncc2cc(-n3ccc(OCc4ccccc4)cc3=O)ccc21 | 12.6 | 1400 | –
13 | CN(C)CC(O)Cn1ncc2cc(-n3ccc(OCc4ccccc4)cc3=O)ccc21 (stereo not given) | 37.7 | 12100 | –
14 | O=c1cc(OCc2ccccc2)ccn1-c1ccc2c(cnn2C[C@@H]2CCCN2)c1 | 12 | 2000 | –
15 | O=c1cc(OCc2ccccc2)ccn1-c1ccc2c(cnn2CC2C[C@@H](O)CN2)c1 (stereo not given in full) | 33 | > 30000 | –
16 | CN1CCN=C1Cn1ncc2cc(-n3ccc(OCc4ccccc4)cc3=O)ccc21 | 30.4 | – | –
17 | O=c1c2cc(-c3ccccc3)oc2ccn1-c1ccc2c(cnn2CCN2CCCC2)c1 | 9.7 | – | –
18 | O=c1c2cc(-c3ccc(F)cc3)oc2ccn1-c1ccc2c(cnn2CCN2CCCC2)c1 | 6.1 | – | –
19 | O=c1c2cc(-c3ccc(Cl)cc3)oc2ccn1-c1ccc2c(cnn2CCN2CCCC2)c1 | 5.2 | – | Kp at 6 h [17]: 16; IC50 [9]: 23 nM; Activity [18]: 4.5%; concentration at 6 h [19]: 2250 ng/g; concentration at 6 h [20]: 141 ng/mL
20 | O=c1c2cc(-c3ccccc3Cl)oc2ccn1-c1ccc2c(cnn2CCN2CCCC2)c1 | 28 | – | –
21 | O=c1c2cc(-c3cccc(Cl)c3)oc2ccn1-c1ccc2c(cnn2CCN2CCCC2)c1 | 38 | – | –
22 | O=c1c2cc(-c3ccc(Cl)cc3Cl)oc2ccn1-c1ccc2c(cnn2CCN2CCCC2)c1 | 14 | – | –
23 | O=c1c2cc(-c3ccc(Cl)cc3F)oc2ccn1-c1ccc2c(cnn2CCN2CCCC2)c1 | 4.2 | – | –
24 | COc1cc(Cl)ccc1-c1cc2c(=O)n(-c3ccc4c(cnn4CCN4CCCC4)c3)ccc2o1 | 48 | – | –
25 | O=c1c2cc(-c3ccccn3)oc2ccn1-c1ccc2c(cnn2CCN2CCCC2)c1 | 59 | – | –
26 | O=c1c2cc(-c3ncccn3)oc2ccn1-c1ccc2c(cnn2CCN2CCCC2)c1 | 1680 | – | –
